Key:
Assay type in all cases: cell-based, mouse
[1] = test system: α7 integrin (LacZ reporter in α7+/LacZ myotubes); assay: Myotube α7 integrin FDG assay (Burkin assay in myotubes, 96-well); details: myotubes
[2] = test system: β-galactosidase in CMV-LacZ C2C12 myotubes; assay: CMV-LacZ secondary screen in C2C12 myotubes (β-Gal stabilizing assay); details: for CMV-LACZ in Myotubes, signal relative to DMSO: C2C12 CMV-LacZ myotubes, fold relative to DMSO; for CMV-LACZ in Myotubes (β-galactosidase activity relative to DMSO): CMV-LacZ C2C12 myotubes, 96-well format
Summary of the method: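 β-gal stabilization was measured in C2C12 myoblasts or myotubes stably transfected with a CMV-driven LacZ construct, using the FDG β-gal assay. Compounds were tested in dose-response at 0.5, 1, 5, 10, 20 and 40 μM, with two replicates per point.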

[3] = test system: α7 integrin (LacZ reporter in α7βgal+/− myoblasts); assay: Myoblast α7+/LacZ integrin FDG assay (Burkin assay in myoblasts, 96-well); details: α7+/LacZ myoblasts, 96-well

SMILES | CMV-LACZ in Myotubes, signal relative to DMSO ([2]; 5 uM) | CMV-LACZ in Myotubes, signal relative to DMSO ([2]; 10 uM) | CMV-LACZ in Myotubes, signal relative to DMSO ([2]; 20 uM) | CMV-LACZ in Myotubes, signal relative to DMSO ([2]; 40 uM) | Burkin Assay in Myotubes (signal relative to DMSO) ([1]; 0.5 uM) | Burkin Assay in Myotubes (signal relative to DMSO) ([1]; 1 uM) | Burkin Assay in Myotubes (signal relative to DMSO) ([1]; 5 uM) | Burkin Assay in Myotubes (signal relative to DMSO) ([1]; 10 uM) | Burkin Assay in Myotubes (signal relative to DMSO) ([1]; 20 uM) | Burkin Assay in Myotubes (signal relative to DMSO) ([1]; 40 uM) | CMV-LACZ in Myotubes (β-galactosidase activity relative to DMSO) ([2]; 5 uM) | CMV-LACZ in Myotubes (β-galactosidase activity relative to DMSO) ([2]; 10 uM) | CMV-LACZ in Myotubes (β-galactosidase activity relative to DMSO) ([2]; 20 uM) | CMV-LACZ in Myotubes (β-galactosidase activity relative to DMSO) ([2]; 40 uM) | Burkin Assay in Myoblasts, value relative to DMSO ([3]; 0.5 uM) | Burkin Assay in Myoblasts, value relative to DMSO ([3]; 1 uM) | Burkin Assay in Myoblasts, value relative to DMSO ([3]; 5 uM) | Burkin Assay in Myoblasts, value relative to DMSO ([3]; 10 uM) | Burkin Assay in Myoblasts, value relative to DMSO ([3]; 20 uM) | Burkin Assay in Myoblasts, value relative to DMSO ([3]; 40 uM) | other results
Cc1ccc(C(=O)C(C)OC(=O)CNC(=O)c2ccc(Br)o2)cc1 (centres unmarked) [MLS001160885-01] | 1.167 | 0.9009 | 0.9095 | 0.8319 |  |  |  |  |  |  |  |  |  |  |  |  |  |  |  |  | Burkin Assay in Myotubes, α7 integrin LacZ reporter signal relative to DMSO ([1]; 0.5 uM): 1; Burkin Assay in Myotubes, α7 integrin LacZ reporter signal relative to DMSO ([1]; 1 uM): 0.9569; Burkin Assay in Myotubes, α7 integrin LacZ reporter signal relative to DMSO ([1]; 5 uM): 1.108; Burkin Assay in Myotubes, α7 integrin LacZ reporter signal relative to DMSO ([1]; 10 uM): 1.146; Burkin Assay in Myotubes, α7 integrin LacZ reporter signal relative to DMSO ([1]; 20 uM): 1.018; Burkin Assay in Myotubes, α7 integrin LacZ reporter signal relative to DMSO ([1]; 40 uM): 0.92; Burkin Assay in Myoblasts, signal relative to DMSO ([3]; 0.5 uM): 1.05; Burkin Assay in Myoblasts, signal relative to DMSO ([3]; 1 uM): 0.9356; Burkin Assay in Myoblasts, signal relative to DMSO ([3]; 5 uM): 0.9402; Burkin Assay in Myoblasts, signal relative to DMSO ([3]; 10 uM): 0.9147; Burkin Assay in Myoblasts, signal relative to DMSO ([3]; 20 uM): 1.021; Burkin Assay in Myoblasts, signal relative to DMSO ([3]; 40 uM): 0.7914
C/C(=N/OC(=O)CC(C)C)c1cc(-c2ccc(Cl)cc2)no1 [MLS000721030-01] |  |  |  |  | 0.9757 | 1.051 | 1.121 | 1.2344 | 1.1412 | 1.205 | 1.111 | 0.9655 | 0.9276 | 0.7917 | 0.9673 | 0.9348 | 1.027 | 1.166 | 1.025 | 1.122 | 
CCCCS(=O)(=O)N1CCCC(C(=O)NCCc2ccccc2)C1 (centres unmarked) [MLS001163121-01] |  |  |  |  | 1.052 | 0.9895 | 0.9395 | 1.173 | 1.07 | 1.09 | 0.8506 | 0.8294 | 0.8781 | 0.9211 | 1.049 | 1.012 | 0.9488 | 0.9907 | 0.8074 | 0.9157 | 
O=C(O)c1cc(-c2ccccc2Cl)n(-c2cccc(Cl)c2)n1 [MLS001166325-01] | 0.7726 | 0.9795 | 0.8969 | 0.8785 | 1.057 | 1.049 | 1.112 | 1.065 | 0.9593 | 1.0054 |  |  |  |  | 1.017 | 0.9268 | 0.9487 | 0.9453 | 0.9772 | 1.032 | 
O=C(c1ccc(Cl)c(S(=O)(=O)N2CCCCC2)c1)N1CCN(Cc2ccccc2)CC1 [MLS001060561-01] |  |  |  |  | 0.8047 | 0.9329 | 0.9832 | 0.9977 | 0.8557 | 0.9329 | 0.9396 | 1.002 | 0.9373 | 0.6425 | 0.9961 | 0.9284 | 0.8266 | 0.8878 | 0.795 | 0.6318 | 
CC1CCN(S(=O)(=O)c2ccc(S(=O)(=O)N3CCCC3)cc2)CC1 [MLS001217673-01] | 0.936 | 0.9409 | 1.161 | 0.9352 |  |  |  |  |  |  |  |  |  |  |  |  |  |  |  |  | Burkin Assay in Myotubes, α7 integrin LacZ reporter signal relative to DMSO ([1]; 0.5 uM): 0.8894; Burkin Assay in Myotubes, α7 integrin LacZ reporter signal relative to DMSO ([1]; 1 uM): 0.749; Burkin Assay in Myotubes, α7 integrin LacZ reporter signal relative to DMSO ([1]; 5 uM): 0.9699; Burkin Assay in Myotubes, α7 integrin LacZ reporter signal relative to DMSO ([1]; 10 uM): 0.9516; Burkin Assay in Myotubes, α7 integrin LacZ reporter signal relative to DMSO ([1]; 20 uM): 1.095; Burkin Assay in Myotubes, α7 integrin LacZ reporter signal relative to DMSO ([1]; 40 uM): 1.078; Burkin Assay in Myoblasts, signal relative to DMSO ([3]; 0.5 uM): 0.8494; Burkin Assay in Myoblasts, signal relative to DMSO ([3]; 1 uM): 0.8343; Burkin Assay in Myoblasts, signal relative to DMSO ([3]; 5 uM): 0.9353; Burkin Assay in Myoblasts, signal relative to DMSO ([3]; 10 uM): 0.9256; Burkin Assay in Myoblasts, signal relative to DMSO ([3]; 20 uM): 0.8325; Burkin Assay in Myoblasts, signal relative to DMSO ([3]; 40 uM): 0.8079
CN(C)S(=O)(=O)c1cccc(C(=O)Nc2ccc3c(c2)CCC3)c1 [MLS001176611-01] |  |  |  |  | 0.9506 | 0.6671 | 1.066 | 0.9301 | 0.9665 | 0.9846 | 0.9287 | 1.235 | 1.034 | 0.785 | 1.049 | 0.994 | 1.097 | 1.072 | 0.8398 | 0.9134 | 
CC1(C)CC(=O)C=C(Nc2ccc(C(=O)O)c(O)c2)C1 [MLS001198693-01] | 1.092 | 0.9258 | 1.025 | 1.112 |  |  |  |  |  |  |  |  |  |  |  |  |  |  |  |  | Burkin Assay in Myotubes, α7 integrin LacZ reporter signal relative to DMSO ([1]; 0.5 uM): 0.96; Burkin Assay in Myotubes, α7 integrin LacZ reporter signal relative to DMSO ([1]; 1 uM): 0.9048; Burkin Assay in Myotubes, α7 integrin LacZ reporter signal relative to DMSO ([1]; 5 uM): 1.011; Burkin Assay in Myotubes, α7 integrin LacZ reporter signal relative to DMSO ([1]; 10 uM): 0.9514; Burkin Assay in Myotubes, α7 integrin LacZ reporter signal relative to DMSO ([1]; 20 uM): 0.9319; Burkin Assay in Myotubes, α7 integrin LacZ reporter signal relative to DMSO ([1]; 40 uM): 1.116; Burkin Assay in Myoblasts, signal relative to DMSO ([3]; 0.5 uM): 0.9617; Burkin Assay in Myoblasts, signal relative to DMSO ([3]; 1 uM): 0.5426; Burkin Assay in Myoblasts, signal relative to DMSO ([3]; 5 uM): 0.9229; Burkin Assay in Myoblasts, signal relative to DMSO ([3]; 10 uM): 0.9137; Burkin Assay in Myoblasts, signal relative to DMSO ([3]; 20 uM): 0.9351; Burkin Assay in Myoblasts, signal relative to DMSO ([3]; 40 uM): 0.9164

— US9980943B2, “Methods of treating muscular dystrophy” (BOARD OF REGENTS OF THE NEVADA SYSTEM OF HIGHER EDUCATION, …, priority 2013, dated 2018)
